Test results published in US9751861B2, “N1-(3,3,3-trifluoro-2-hydroxo-2-methylpropionyl)-piperidine derivatives as inhibitors of pyruvate dehydrogenase kinase” (MERCK PATENT GMBH, priority 2013, dated 2017).

Tests used:
human PDHK2 (12-407) = target: T1, human PDHK2 (12-407) (Homo sapiens, UniProt Q15119); test: Isothermal titration calorimetry (ITC) binding; conditions: 30° C., pH 7.5
T1 construct: The human PDHK2 (12-407) was produced in E. coli; His-tag (cleaved yes); made in house; host or cells: E. coli
Method: Isothermal Titration Calorimetry
ITC measurements were performed with a VP-ITC micro calorimeter (Microcal, LLC/GE Healthcare Bio-Sciences AB, Uppsala, Sweden). In general titrations were performed by titrating the protein (50 μM) to the test compound (5 μM) in 12 μl injections. All binding experiments were carried out at 30° C. In general the test compounds were diluted form DMSO stock solutions into the measurement buffer with a maximum final concentration of 1% DMSO. The measurement buffer was 20 mM HEPES, 135 mM KCl, 1 mM TCEP, 2 mM MgCl2, 15 mM NaH2PO4, pH 7.5. The human PDHK2 (12-407) was produced in E. coli as his-tagged protein and purified by affinity chromatography. The tag was removed by side specific proteolysis. Before titration the protein buffer was changed to the measurement buffer containing the same DMSO concentration as the test compound dilution. ITC data analysis was performed using Origin 7 calorimetry software from the same supplier. For most measurements a binding model of one binding site was assumed. According to the applied mathematical model it is possible to calculate the binding constant (KA), the observed binding enthalpy (ΔH^obs) as well as the stoichiometry (N) of the formed complex. Preceding analysis the raw data was corrected for the heats of dilution by extrapolating from the saturation value from the end of titration. In order to allow for direct comparison between the respective experimental series and protein preparations the protein concentration was corrected by referencing titrations to a well behaved standard inhibitor. The apparent stoichiometry values defined the fraction of binding competent protein and compensated for relative errors in protein concentration measurements. This corrected protein concentration was used to set up ITC experiment series with test compounds. Any deviations from ideal 1:1 stoichiometry observed here were attributed to errors in compound concentration. This nominal compound concentration was corrected as well to achieve 1:1 stoichiometry in the fit.

PDH-Elalpha (pSer300) = test: Cellular immunofluorescence assay in HEK293T cells; format: cell-based; conditions: Homo sapiens, HEK-293T, 5 hours incubation, anti-PDH-E1alpha pSer300 immunofluorescence, read-out: IC50 (cell data)
Method: Cellular Assay for Determination of Compound Activities
Compound activities were determined in a cellular immunofluorescence assay. Human HEK293T cells were seeded into black 384-well plates with clear bottom and grown overnight.
Next day, test compounds were added to the wells and the plates incubated for 5 hours. Following this, cells were fixed with formaldehyde, permeabilised and blocked. The primary antibody, Anti-PDH-Elalpha (pSer300), AP1064 (Merck Millipore) was added and incubated overnight in the plate wells. Next, cells were washed and the seconday antibody, Alexa Fluor 488, goat anti-rabbit ab (A-11008, Invitrogen) was added together with Hoechst 33258 (H3569, Invitrogen) and incubated for 1 hour in the plate wells. Finally, cells were washed and the plates were measured on the laser scanning cytometer acumen hci (TTpLabtech).
The raw data were normalized against a pharmacological inhibitor control and dose response curves were generated by plotting the percent effect values using the software package Genedata screener (Genedata).

PDHK2 = target: T2, PDHK2 (Homo sapiens, UniProt Q15119); test: Biochemical activity testing of PDHK2: PDC inactivation assay; conditions: human rec PDHK2, PDC from porcine heart, ATP 5 μM; read-out: IC50 PDHK2 (enzyme assay)
T2 construct: purchased Carna Bioscience
Excerpt: Biochemical Activity Testing of PDHK2: PDC Inactivation Assay
The biochemical activity assay for PDHK2 is based on the inactivation of PDC through phosphorylation by PDHK2. The assay is run in two steps: the enzymatic PDHK2 reaction in which isolated PDC is phosphorylated by PDHK2 with ATP as co-substrate and the PDC activity assay in which pyruvate and NAD are converted to acetyl-CoA and NADH. The PDC activity correlates to the increase in NADH and thereby is detectable directly via the increasing fluorescence signal (Exc 340 nm, Em 450 nm). Inhibition of PDHK2 results in a lower phosphorylation status and thereby a less decrease in activity of PDC and a stronger increase in NADH fluorescence signal.
The PDC inactivation assay is performed in Greiner 384-well microtiter plates and is used for high throughput screen. 4 μl of PDHK2 (human, rec, Carna Bioscience, 10 ng/μl-137 nM final concentration) and PDC (isolated from porcine heart, Sigma-Aldrich, 20 mU/ml final concentration) are incubated in the absence or presence of the test compound (10 dilution concentrations) for 30 min at room temperature in kinase buffer (15 mM potassium phosphate buffer, pH 7.0, 60 mM KCl, 1.5 mM DTT, 2.5 mM MgCl2, 0.0125% (w/v) BSA, 0.125% Pluronic F-68). The kinase reaction is started by the addition of 4 μl ATP substrate solution (fc 5 μM in kinase buffer). After 30 min incubation at 37° C. 40 μl of PDC reaction solution (100 mM Tris/HCl, pH 7.8, 0.5 mM EDTA, 1 mM MgCl2, 50 mM NaF, 0.25 mM Coenzyme A, 5 mM pyruvate, 1 mM NAD, 5 mM DTT, […] thiamine pyrophosphate) is added. The first fluorescence measurement is performed on a Perkin Elmer Envision (Exc 340 nm, Em 450 nm). The reaction is incubated for 45 min at room temperature. Afterwards a second fluorescence measurement is performed and the PDC activity is calculated by the difference between both measurements. As full value for the PDHK2 assay the inhibitor-free PDHK2 reaction is used. The pharmacological zero value used is DCA (Sigma-Aldrich) in a final concentration of 3 mM. The inhibitory values (IC50) were determined using either the program Symyx Assay Explorer® or Condosseo® from GeneData.

Row | Kd (human PDHK2 (12-407)) | IC50 (PDH-Elalpha (pSer300)) | IC50 (PDHK2) | SMILES
1 | < 300 nM | 300 to 3000 nM | 300 to 3000 nM | CC(C)(C)n1nccc1C1CCN(C(=O)[C@@](C)(O)C(F)(F)F)CC1 [Compound A17, (R)-1-[4-(2-tert-Butyl-2H-pyrazol-3-yl)-piperidin-1-yl]-3,3,3-trifluoro-2-hydroxy-2-methyl-propan-1-one]
2 | < 300 nM | 300 to 3000 nM | 300 to 3000 nM | CC1CN(C(=O)[C@@](C)(O)C(F)(F)F)CCC1c1ccn(-c2ccc(F)cc2)n1 (stereo partly drawn) [Compound A44, (R)-1-{4-[1-(4-Fluoro-phenyl)-1H-pyrazol-3-yl]-3-methyl-piperidin-1-yl}-3,3,3-trifluoro-2-hydroxy-2-methyl-propan-1-one]
3 | 300 to 3000 nM | 3000 to 50000 nM | 3000 to 50000 nM | C[C@@](O)(C(=O)N1CCC(c2ccn(-c3ccc(C(F)(F)F)cn3)n2)CC1)C(F)(F)F [Compound A102, (R)-3,3,3-Trifluoro-2-hydroxy-2-methyl-1-{4-[1-(5-trifluoromethyl-pyridin-2-yl)-1 H-pyrazol-3-yl]-piperidin-1-yl}-propan-1-one]
4 | < 300 nM | 300 to 3000 nM | < 300 nM | Cc1cc(C2CCN(C(=O)[C@@](C)(O)C(F)(F)F)CC2)n(-c2ccccc2)n1 [Compound A98, (R)-3,3,3-Trifluoro-2-hydroxy-2-methyl-1-[4-(5-methyl-2-phenyl-2H-pyrazol-3-yl)-piperidin-1-yl]-propan-1-one]
5 | 300 to 3000 nM | – | 300 to 3000 nM | C[C@@](O)(C(=O)N1CCC(c2nncn2-c2ccc(F)cc2)CC1)C(F)(F)F [Compound A71, (R)-3,3,3-Trifluoro-1-{4-[4-(4-fluoro-phenyl)-4H-[1,2,4]triazol-3-yl]-piperidin-1-yl}-2-hydroxy-2-methyl-propan-1-one]
6 | – | 300 to 3000 nM | < 300 nM | C[C@H]1CN(C(=O)[C@@](C)(O)C(F)(F)F)CC[C@H]1c1ccnn1-c1ccc(F)cc1F [Compound A32, (R)-1-{(3R,4R)-4-[2-(2,4-difluoro-phenyl)-2H-pyrazol-3-yl]-3-methyl-piperidin-1-yl}-3,3,3-trifluoro-2-hydroxy-2-methyl-propan-1-one]
7 | 300 to 3000 nM | – | 300 to 3000 nM | C[C@H]1CN(C(=O)[C@@](C)(O)C(F)(F)F)CC[C@H]1c1ccnn1-c1ccc(F)cc1 [Compound A108, (R)-3,3,3-Trifluoro-1-{(3R,4R)-4-[2-(4-fluoro-phenyl)-2H-pyrazol-3-yl]-3-methyl-piperidin-1-yl}-2-hydroxy-2-methyl-propan-1-one]
8 | 300 to 3000 nM | – | 300 to 3000 nM | C[C@@](O)(C(=O)N1CCC(c2nccn2-c2ccc(F)cc2)CC1)C(F)(F)F [Compound A67, (R)-3,3,3-Trifluoro-1-{4-[1-(4-fluoro-phenyl)-1H-imidazol-2-yl]-piperidin-1-yl}-2-hydroxy-2-methyl-propan-1-one]
9 | 300 to 3000 nM | – | 300 to 3000 nM | C[C@@](O)(C(=O)N1CCC(c2ccnn2-c2ccon2)CC1)C(F)(F)F [Compound A122, (R)-3,3,3-Trifluoro-2-hydroxy-1-[4-(2-isoxazol-3-yl-2H-pyrazol-3-yl)-piperidin-1-yl]-2-methyl-propan-1-one]
10 | 300 to 3000 nM | – | 300 to 3000 nM | C[C@@](O)(C(=O)N1CCC(n2nccc2-c2ccccc2)CC1)C(F)(F)F [Compound A66, (R)-3,3,3-Trifluoro-2-hydroxy-2-methyl-1-[4-(5-phenyl-pyrazol-1-yl)-piperidin-1-yl]-propan-1-one]
11 | 300 to 3000 nM | 300 to 3000 nM | – | C[C@@](O)(C(=O)N1CCC(c2ccnn2-c2ccccc2C#N)CC1)C(F)(F)F [Compound A3, 2-{5-[1-((R)-3,3,3-Trifluoro-2-hydroxy-2-methyl-propionyl)-piperidin-4-yl]-pyrazol-1-yl}-benzonitrile]
12 | 300 to 3000 nM | – | 300 to 3000 nM | C[C@@](O)(C(=O)N1CCC(c2nncn2-c2ccccc2)CC1)C(F)(F)F [Compound A72, (R)-3,3,3-Trifluoro-2-hydroxy-2-methyl-1-[4-(4-phenyl-4H-[1,2,4]triazol-3-yl)piperidin-1-yl]-propan-1-one]
13 | 300 to 3000 nM | – | 300 to 3000 nM | C[C@@](O)(C(=O)N1CCC(c2cnnn2-c2ccc(Cl)cc2)CC1)C(F)(F)F [Compound A58, (R)-1-{4-[3-(4-Chloro-phenyl)-3H-[1,2,3]triazol-4-yl]-piperidin-1-yl}-3,3,3-trifluoro-2-hydroxy-2-methyl-propan-1-one]
14 | 300 to 3000 nM | – | 300 to 3000 nM | Cc1ccc(-n2ccnc2C2CCN(C(=O)[C@@](C)(O)C(F)(F)F)CC2)cc1 [Compound A68, (R)-3,3,3-Trifluoro-2-hydroxy-2-methyl-1-[4-(1-p-tolyl-1H-imidazol-2-yl)piperidin-1-yl]-propan-1-one]
15 | – | < 300 nM | < 300 nM | C[C@@H]1CN(C(=O)[C@@](C)(O)C(F)(F)F)CC[C@@H]1c1ccnn1-c1ccc(F)cc1F [Compound A33, (R)-1-{(3S,4S)-4-[2-(2,4-difluoro-phenyl)-2H-pyrazol-3-yl]-3-methyl-piperidin-1-yl}-3,3,3-trifluoro-2-hydroxy-2-methyl-propan-1-one]
16 | 300 to 3000 nM | < 300 nM | – | COc1ccccc1-n1nccc1C1CCN(C(=O)[C@@](C)(O)C(F)(F)F)CC1 [Compound A7, (R)-3,3,3-Trifluoro-2-hydroxy-1-{4-[2-(2-methoxy-phenyl)-2H-pyrazol-3-yl]-piperidin-1-yl}-2-methyl-propan-1-one]
17 | 300 to 3000 nM | – | 300 to 3000 nM | COc1ccc(-n2ccnc2C2CCN(C(=O)[C@@](C)(O)C(F)(F)F)CC2)cc1 [Compound A70, (R)-3,3,3-Trifluoro-2-hydroxy-1-{4-[1-(4-methoxy-phenyl)-1H-imidazol-2-yl]-piperidin-1-yl}-2-methyl-propan-1-one]
18 | < 300 nM | – | 300 to 3000 nM | C[C@@](O)(C(=O)N1CCC(c2ccnn2C2CC2)CC1)C(F)(F)F [Compound A74, (R)-1-[4-(2-Cyclopropyl-2H-pyrazol-3-yl)-1-piperidyl]-3,3,3-trifluoro-2-hydroxy-2-methyl-propan-1-one]
19 | < 300 nM | – | < 300 nM | Cc1cc(C2CCN(C(=O)[C@@](C)(O)C(F)(F)F)CC2)n(-c2ccc(Cl)cc2)n1 [Compound A50, (R)-1-{4-[2-(4-Chloro-phenyl)-5-methyl-2H-pyrazol-3-yl]-piperidin-1-yl}-3,3,3-trifluoro-2-hydroxy-2-methyl-propan-1-one]
